Data on 28 compounds can be found in US9856262B2, “Analogues of 4H-pyrazolo[1,5-a] benzimidazole compound as PARP inhibitors” (HUBEI BIO-PHARMACEUTICAL INDUSTRIAL TECHNOLOGICAL INSTITUTE …, priority 2014, dated 2018).

One assay deals with T1, PARP-1 (Homo sapiens, UniProt P09874).
T1 construct: purchased
The assay can be described thus: PARP enzymatic assay (HT Universal Colorimetric PARP1 Assay Kit). The assay is classed as biochemical. Particulars: read-out: PARP-1 enzymatic inhibition IC50. How it is done: PARP Enzymatic Assay (Following the Manual of HT Universal Colorimetric PARP1 Assay Kit).
Histone proteins were coated on a 96-well plate and incubated overnight at 4° C. After be washed 3 times with 200 ul PBST solution, the plate was blocked with a blocking solution and incubated for 30 min at room temperature, and then washed with PBST solution 3 times. A compound to be tested was treated and added to the plate. Thereafter, 20 μl of diluted PARP1 (1 nM) or 20 μl of PARP2 (3 nM) solution was added into the reaction system and incubated for 1 or 2 hours. 50 ul of streptavidin-HRP mixture (1:50) was added into the plate and incubated for 30 min at room temperature. The plate was then washed with three times with PBST buffer. 100 μl of (HRP) (Chemiluminescent substrate A and substrate B (1:1)) was added into the plate, and the plate was immediately read on a microplate reader (Envision, PerkinElmer).

Another assay has as its system HCC1937 cells. Put plainly: Cellular PARylation assay. The assay is classed as cell-based. Particulars: Homo sapiens; HCC1937 cells, compound 30 min then 1 mM H2O2 10 min; read-out: cellular PARylation EC50. How it is done:
Cellular PARylation Assay
HCC1937 cells were planted into 96 well plates at 4×10^4 cells/well and incubated at 37° C. in an incubator overnight. After being treated with a test compound for 30 min, cells were then treated with 1 mM H2O2 for 10 min. The cells were washed with 200 ul pre-chilled PBS twice and fixed with 100 ul pre-chilled methanol/acetone (7:3) on ice for 30 min. After being air-dried, the plates were blocked using PBS-Tween blocking solution (0.05%) with dissolved 5% nonfat dry milk for 30 min at room temperature. The cells were incubated with anti-PAR antibody 10H (1:100) at room temperature for 1 hour followed by washing with PBS-Tween20 for 3 times; and then added into a blocking solution including goat anti-mouse fluorescein isothiocyanate (FITC)-coupled secondary antibody and 1 μg/mL DAPI to incubate away from light at room temperature for 1 hour. After being washed with PBS-Tween20 for 3 times, the plate was analyzed with a fluorescence microplate counter (Flexstation III, Molecular Device).

Where only a bound is given, the exact number is not on record here.

T1 sequence (P09874 whole entry): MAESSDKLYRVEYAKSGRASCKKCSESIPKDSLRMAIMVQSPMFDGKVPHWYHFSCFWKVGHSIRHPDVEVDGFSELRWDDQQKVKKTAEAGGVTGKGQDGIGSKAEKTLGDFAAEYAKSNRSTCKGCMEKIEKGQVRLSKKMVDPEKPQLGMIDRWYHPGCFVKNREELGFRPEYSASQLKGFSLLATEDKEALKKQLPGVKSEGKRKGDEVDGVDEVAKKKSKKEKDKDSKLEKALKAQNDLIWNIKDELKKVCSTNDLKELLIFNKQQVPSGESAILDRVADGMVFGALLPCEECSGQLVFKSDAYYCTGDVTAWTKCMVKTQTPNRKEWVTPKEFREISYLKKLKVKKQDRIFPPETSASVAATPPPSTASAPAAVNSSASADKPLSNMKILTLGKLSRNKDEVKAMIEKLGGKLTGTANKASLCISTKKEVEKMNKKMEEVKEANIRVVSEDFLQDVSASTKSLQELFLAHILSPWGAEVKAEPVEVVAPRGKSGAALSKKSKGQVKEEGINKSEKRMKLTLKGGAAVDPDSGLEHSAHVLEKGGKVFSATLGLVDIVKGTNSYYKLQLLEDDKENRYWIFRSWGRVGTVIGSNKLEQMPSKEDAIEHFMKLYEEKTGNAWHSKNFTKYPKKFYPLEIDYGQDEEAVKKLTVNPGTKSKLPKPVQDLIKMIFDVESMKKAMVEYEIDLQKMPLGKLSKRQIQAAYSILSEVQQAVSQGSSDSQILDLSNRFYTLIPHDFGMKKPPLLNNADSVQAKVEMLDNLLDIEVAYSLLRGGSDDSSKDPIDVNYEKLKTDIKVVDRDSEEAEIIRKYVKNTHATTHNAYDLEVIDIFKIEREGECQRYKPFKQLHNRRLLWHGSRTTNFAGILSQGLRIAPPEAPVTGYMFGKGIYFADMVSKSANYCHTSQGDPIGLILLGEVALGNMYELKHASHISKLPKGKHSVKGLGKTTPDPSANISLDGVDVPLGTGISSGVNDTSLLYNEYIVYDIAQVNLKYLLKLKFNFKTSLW

The IC50 is the concentration that inhibits the measured activity by half. A word on the EC50: it is the concentration at which the effect is half-maximal. Consider `CN1CC2CC2(c2cnn3c2[nH]c2cc(F)cc(C(N)=O)c23)C1` (centres unmarked) [Example 28, 6-fluoro-3-(3-methyl-3-azabicyclo[3.1.0]hexan-1-yl)-4H-benzo[4,5]imidazo[1,2-b]pyrazole-8-carboxamide], for which the IC50 on PARP-1 lay within 1 to 100 nM. The EC50 with HCC1937 cells fell in the range of 1 to 100 nM.
Consider `CCN1CC2CC2(c2cnn3c2[nH]c2cc(F)cc(C(N)=O)c23)C1` (centres unmarked) [Example 29, 3-(3-ethyl-3-azabicyclo[3.1.0]hexan-1-yl)-6-fluoro-4H-benzo[4,5]imidazo[1,2-b]pyrazole-8-carboxamide], for which the IC50 at PARP-1 was 1 to 100 nM. Also, the concentration for a half-maximal effect (EC50) with HCC1937 cells was in the range of 1 to 100 nM.
For the compound `NC(=O)c1cc(F)cc2[nH]c3c(C45CC4CN(C4CCC4)C5)cnn3c12` (centres unmarked) [Example 30, 3-(3-cyclobutyl-3-azabicyclo[3.1.0]hexan-1-yl)-6-fluoro-4H-benzo[4,5]imidazo[1,2-b]pyrazole-8-carboxamide], at PARP-1, the IC50 was in the range of 1 to 100 nM. Besides, in the assay with HCC1937 cells, the EC50 lay within 1 to 100 nM.
Turning to `NC(=O)c1cc(F)cc2[nH]c3c(C45CC4CN(CC4CC4)C5)cnn3c12` (centres unmarked) [Example 31, 3-(3-(cyclopropylmethyl)-3-azabicyclo[3.1.0]hexan-1-yl)-6-fluoro-4H-benzo[4,5]imidazo[1,2-b]pyrazole-8-carboxamide], at PARP-1, the half-maximal inhibitory concentration (IC50) fell in the range of 1 to 100 nM. In addition, the half-maximal effective concentration (EC50) in the assay on HCC1937 cells fell in the range of 1 to 100 nM.
`CC(C)N1CC2CC2(c2cnn3c2[nH]c2cc(F)cc(C(N)=O)c23)C1` (centres unmarked) [Example 32, 6-fluoro-3-(3-isopropyl-3-azabicyclo[3.1.0]hexan-1-yl)-4H-benzo[4,5]imidazo[1,2-b]pyrazole-8-carboxamide]: the IC50 at PARP-1 was 1 to 100 nM. For the same compound, in the assay with HCC1937 cells, the EC50 lay within 1 to 100 nM.
With `NC(=O)c1cc(F)cc2[nH]c3c(C4C5CNCC54)cnn3c12` (centres unmarked) [Example 33, 3-(3-azabicyclo[3.1.0]hexan-6-yl)-6-fluoro-4H-benzo[4,5]imidazo[1,2-b]pyrazole-8-carboxamide], at PARP-1, the half-inhibitory concentration (IC50) lay in the range of 1 to 100 nM. In addition, in the assay with HCC1937 cells, the EC50 fell in the range of 101 to 1000 nM.
As to `CCN1CC2C(C1)C2c1cnn2c1[nH]c1cc(F)cc(C(N)=O)c12` (centres unmarked) [Example 34, 3-(3-ethyl-3-azabicyclo[3.1.0]hexan-6-yl)-6-fluoro-4H-benzo[4,5]imidazo[1,2-b]pyrazole-8-carboxamide], the IC50 on PARP-1 was in the range of 1 to 100 nM. Also, in the assay on HCC1937 cells, the EC50 lay within 101 to 1000 nM.
Consider `CCN1C2CCC1CC(c1cnn3c1[nH]c1cc(F)cc(C(N)=O)c13)C2` (centres unmarked) [Example 35, 3-(8-ethyl-8-azabicyclo[3.2.1]octan-3-yl)-6-fluoro-4H-benzo[4,5]imidazo[1,2-b]pyrazole-8-carboxamide], for which the concentration for half-maximal inhibition (IC50) at PARP-1 lay in the range of 1 to 100 nM. The EC50 in the assay with HCC1937 cells lay in the range of 101 to 1000 nM.
The like results for `NC(=O)c1cc(F)cc2[nH]c3c(C4CC(O)CN4)cnn3c12` (centres unmarked) [Example 36, 6-fluoro-3-(4-hydroxypyrrolidin-2-yl)-4H-benzo[4,5]imidazo[1,2-b]pyrazole-8-carboxamide] were, in that order, 1 to 100 nM and 101 to 1000 nM.
For the compound `N#Cc1cnn2c1[nH]c1cc(F)cc(C(N)=O)c12` [Example 37, 3-cyano-6-fluoro-4H-benzo[4,5]imidazo[1,2-b]pyrazole-8-carboxamide], the IC50 at PARP-1 was 1 to 100 nM. Besides, in the assay on HCC1937 cells, the EC50 was over 1000 nM.
As for `N#Cc1cnn2c1[nH]c1cccc(C(N)=O)c12` [Example 38, 3-cyano-4H-benzo[4,5]imidazo[1,2-b]pyrazole-8-carboxamide], the concentration for half-maximal inhibition (IC50) at PARP-1 was 101 to 1000 nM. Further, in the assay on HCC1937 cells, the concentration giving a half-maximal response (EC50) is over 1000 nM.
As to `NCc1cnn2c1[nH]c1cc(F)cc(C(N)=O)c12` [Example 39, 3-(aminomethyl)-6-fluoro-4H-benzo[4,5]imidazo[1,2-b]pyrazole-8-carboxamide], the 50% inhibitory concentration (IC50) at PARP-1 is 1 to 100 nM. For the same compound, in the assay with HCC1937 cells, the half-maximal effective concentration (EC50) fell in the range of 101 to 1000 nM.
As for `NC(=O)c1cc(F)cc2[nH]c3c(CNC(=O)C4CC4)cnn3c12` [Example 40, 3-(cyclopropanecarboxamidomethyl)-6-fluoro-4H-benzo[4,5]imidazo[1,2-b]pyrazole-8-carboxamide], the IC50 at PARP-1 was in the range of 1 to 100 nM. Further, the 50% effective concentration (EC50) in the assay with HCC1937 cells is over 1000 nM.
In the case of `NC(=O)c1cc(F)cc2[nH]c3c(-c4ccc(F)cc4)cnn3c12` [Example 41, 6-fluoro-3-(4-fluorophenyl)-4H-benzo[4,5]imidazo[1,2-b]pyrazole-8-carboxamide], the IC50 on PARP-1 was in the range of 101 to 1000 nM. In addition, the half-maximal effective concentration (EC50) in the assay on HCC1937 cells is over 1000 nM.
The like results for `CNCc1ccc(-c2cnn3c2[nH]c2cc(F)cc(C(N)=O)c23)c(F)c1` [Example 42, 6-fluoro-3-(2-fluoro-4-((methylamino)methyl)phenyl)-4H-benzo[4,5]imidazo[1,2-b]pyrazole-8-carboxamide] were, in that order, 1 to 100 nM and 101 to 1000 nM.
The like results for `CNCc1ccc(-c2cnn3c2[nH]c2cc(F)cc(C(N)=O)c23)cc1` [Example 43, 6-fluoro-3-(4-((methylamino)methyl)phenyl)-4H-benzo[4,5]imidazo[1,2-b]pyrazole-8-carboxamide] were, in that order, 1 to 100 nM and 101 to 1000 nM.
On the same counts, the results for `CNCc1ccc(F)c(-c2cnn3c2[nH]c2cc(F)cc(C(N)=O)c23)c1` [Example 44, 6-fluoro-3-(2-fluoro-5-((methylamino)methyl)phenyl)-4H-benzo[4,5]imidazo[1,2-b]pyrazole-8-carboxamide] are 101 to 1000 nM and 101 to 1000 nM.
`NC(=O)c1cc(F)cc2[nH]c3c(-c4ccncc4)cnn3c12` [Example 45, 6-fluoro-3-(pyridin-4-yl)-4H-benzo[4,5]imidazo[1,2-b]pyrazole-8-carboxamide]: the half-inhibitory concentration (IC50) on PARP-1 is 101 to 1000 nM. In addition, in the assay with HCC1937 cells, the half-maximal effective concentration (EC50) is over 1000 nM.
Consider `NC(=O)c1cc(F)cc2[nH]c3c(-c4ccc(C5CCCNC5)cc4)cnn3c12` (centres unmarked) [Example 46, 6-fluoro-3-(4-(piperidin-3-yl)phenyl)-4H-benzo[4,5]imidazo[1,2-b]pyrazole-8-carboxamide], for which, on PARP-1, the half-inhibitory concentration (IC50) is 101 to 1000 nM. Besides, in the assay with HCC1937 cells, the EC50 is over 1000 nM.
For the compound `NC(=O)c1cc(F)cc2[nH]c3c(C4CCOCC4)cnn3c12` [Example 47, 6-fluoro-3-(tetrahydro-2H-pyran-4-yl)-4H-benzo[4,5]imidazo[1,2-b]pyrazole-8-carboxamide], at PARP-1, the IC50 was 1 to 100 nM. The concentration for a half-maximal effect (EC50) in the assay on HCC1937 cells was over 1000 nM.
The like results for `CN(C)C1CCC(c2cnn3c2[nH]c2cc(F)cc(C(N)=O)c23)CC1` (centres unmarked) [Example 48, 3-(4-(dimethylamino)cyclohexyl)-6-fluoro-4H-benzo[4,5]imidazo[1,2-b]pyrazole-8-carboxamide] were, in that order, 1 to 100 nM and 1 to 100 nM.
The like results for `CN1CCN(C(=O)c2cnn3c2[nH]c2cc(F)cc(C(N)=O)c23)CC1` [Example 49, 6-fluoro-3-(4-methylpiperazine-1-carbonyl)-4H-benzo[4,5]imidazo[1,2-b]pyrazole-8-carboxamide] were, in that order, 1 to 100 nM and 101 to 1000 nM.
Take `NC(=O)c1cc(F)cc2c1-n1ncc(C3CCN(CC4CC4)CC3)c1C2(F)F` [Example 50, 3-(1-(cyclopropylmethyl)piperidin-4-yl)-4,4,6-trifluoro-4H-pyrazolo[1,5-α]indole-8-carboxamide]: the IC50 on PARP-1 lay within 101 to 1000 nM. Moreover, in the assay on HCC1937 cells, the EC50 was over 1000 nM.
On the same counts, the results for `CC1(c2cnn3c2[nH]c2cc(F)cc(C(N)=O)c23)CCN(CC2(C#N)CCC2)CC1` [Example 64, 3-(1-((1-cyanocyclobutyl)methyl)-4-methylpiperidin-4-yl)-6-fluoro-4H-benzo[4,5]imidazo[1,2-b]pyrazole-8-carboxamide] are 1 to 100 nM and 101 to 1000 nM.
On the same counts, the results for `CC1(c2cnn3c2[nH]c2cc(F)cc(C(N)=O)c23)CCN(CCS(C)(=O)=O)CC1` [Example 65, 6-fluoro-3-(4-methyl-1-(2-(methylsulfonyl)ethyl)piperidin-4-yl)-4H-benzo[4,5]imidazo[1,2-b]pyrazole-8-carboxamide] are 1 to 100 nM and 1 to 100 nM.
Regarding `CC1(c2cnn3c2[nH]c2cc(F)cc(C(N)=O)c23)CCN(CC2CCOCC2)CC1` [Example 66, 6-fluoro-3-(4-methyl-1-((tetrahydro-2H-pyran-4-yl)methyl)piperidin-4-yl)-4H-benzo[4,5]imidazo[1,2-b]pyrazole-8-carboxamide], the concentration for half-maximal inhibition (IC50) at PARP-1 was 1 to 100 nM. Also, the half-maximal effective concentration (EC50) in the assay on HCC1937 cells lay within 1 to 100 nM.
Consider `CC1(c2cnn3c2[nH]c2cc(F)cc(C(N)=O)c23)CCN(CC2(N)CC2)CC1` [Example 67, 3-(1-((1-aminocyclopropyl)methyl)-4-methylpiperidin-4-yl)-6-fluoro-4H-benzo[4,5]imidazo[1,2-b]pyrazole-8-carboxamide], for which the 50% inhibitory concentration (IC50) at PARP-1 is 1 to 100 nM. In addition, the concentration giving a half-maximal response (EC50) in the assay with HCC1937 cells fell in the range of 1 to 100 nM.
In the case of `CC1(c2cnn3c2[nH]c2cc(F)cc(C(N)=O)c23)CCN(CC2COC2)CC1` [Example 68, 6-fluoro-3-(4-methyl-1-(oxetan-3-ylmethyl)piperidin-4-yl)-4H-benzo[4,5]imidazo[1,2-b]pyrazole-8-carboxamide], on PARP-1, the concentration for half-maximal inhibition (IC50) fell in the range of 1 to 100 nM. Besides, the concentration giving a half-maximal response (EC50) with HCC1937 cells lay in the range of 1 to 100 nM.
